Results from patent US11471537B2, “Oligomer extended insulin-Fc conjugates” (Novo Nordisk A/S, priority 2017, dated 2022).

How the values were obtained:
insulin receptor A = insulin receptor A (Homo sapiens, UniProt P06213); experiment: Insulin receptor affinity; type: binding; conditions: relative to affinity of human insulin for insulin receptor A (100%)
[1] = PK studies: intravenous and subcutaneous administration to SD rats, insulin-Fc concentrations by immuno-assay; type: in vivo
Method: Insulin-Fc conjugates were tested in vivo by intravenous and subcutaneous administration to SD rats. Blood samples were collected and the insulin-Fc concentrations were measured by immuno-assay.

Sprague-Dawley rats = experiment: PD studies: blood glucose after subcutaneous dosing; type: in vivo; conditions: sc, dose 30 nmol/kg
Procedure, shortened: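 Normal male Sprague-Dawley rats (~350 g), fed ad libitum, received a single subcutaneous neck dose of 30 nmol/kg unless otherwise stated. Tongue-vein blood was sampled up to 10 days post-dose for blood glucose (Biosen analyser) and plasma insulin.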

isolated rat adipocytes = experiment: Insulin-stimulated lipogenesis; type: cell-based; conditions: 1% HSA; relative to the activity of human insulin (100%)
Method: Insulin-stimulated lipogenesis was measured in isolated rat adipocytes in presence of 1% HSA as described in Moody A J, Stan M A, Stan M, Gliemann J. A Simple Free Fat Cell Bioassay for Insulin. Hormone And Metabolic Research. 1974; 6(1):12-6, see results in Table 6.

Chain of insulin receptor A (P06213 28-1370 isoform P06213-2 limits assumed): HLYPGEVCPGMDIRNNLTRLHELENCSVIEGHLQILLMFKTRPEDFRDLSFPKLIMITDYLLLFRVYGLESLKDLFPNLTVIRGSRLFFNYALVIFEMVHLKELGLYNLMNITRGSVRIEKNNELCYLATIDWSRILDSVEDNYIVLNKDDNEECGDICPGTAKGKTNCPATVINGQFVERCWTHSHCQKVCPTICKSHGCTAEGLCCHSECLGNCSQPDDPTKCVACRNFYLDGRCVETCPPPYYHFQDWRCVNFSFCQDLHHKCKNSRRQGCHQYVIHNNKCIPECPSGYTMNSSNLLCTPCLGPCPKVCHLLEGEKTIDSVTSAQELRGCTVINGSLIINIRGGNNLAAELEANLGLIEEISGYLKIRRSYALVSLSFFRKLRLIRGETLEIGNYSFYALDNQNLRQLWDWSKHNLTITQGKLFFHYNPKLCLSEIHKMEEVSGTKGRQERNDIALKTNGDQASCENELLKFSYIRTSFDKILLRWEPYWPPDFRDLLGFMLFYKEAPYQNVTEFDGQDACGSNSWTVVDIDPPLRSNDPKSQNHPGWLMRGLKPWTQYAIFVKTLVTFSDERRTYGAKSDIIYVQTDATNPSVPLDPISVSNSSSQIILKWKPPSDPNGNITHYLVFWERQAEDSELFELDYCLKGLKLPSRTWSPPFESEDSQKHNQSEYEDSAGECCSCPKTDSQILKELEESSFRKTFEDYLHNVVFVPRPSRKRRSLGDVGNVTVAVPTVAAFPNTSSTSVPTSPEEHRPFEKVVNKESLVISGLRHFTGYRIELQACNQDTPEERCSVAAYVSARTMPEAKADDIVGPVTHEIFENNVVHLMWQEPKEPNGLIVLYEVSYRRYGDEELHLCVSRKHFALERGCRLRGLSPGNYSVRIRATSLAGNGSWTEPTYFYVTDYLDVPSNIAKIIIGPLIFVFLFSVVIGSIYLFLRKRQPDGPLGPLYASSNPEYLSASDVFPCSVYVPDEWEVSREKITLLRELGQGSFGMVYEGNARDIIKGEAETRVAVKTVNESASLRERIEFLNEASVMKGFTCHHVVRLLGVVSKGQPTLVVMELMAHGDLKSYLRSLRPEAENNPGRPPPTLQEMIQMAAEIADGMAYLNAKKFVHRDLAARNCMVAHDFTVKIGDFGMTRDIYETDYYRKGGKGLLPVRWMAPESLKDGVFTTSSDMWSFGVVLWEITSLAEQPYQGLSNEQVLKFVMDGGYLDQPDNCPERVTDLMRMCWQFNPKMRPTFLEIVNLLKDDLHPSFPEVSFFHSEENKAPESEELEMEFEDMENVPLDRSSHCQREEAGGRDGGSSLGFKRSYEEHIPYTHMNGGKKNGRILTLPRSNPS
Chain of insulin receptor A (P06213 763-1382 partner limits assumed): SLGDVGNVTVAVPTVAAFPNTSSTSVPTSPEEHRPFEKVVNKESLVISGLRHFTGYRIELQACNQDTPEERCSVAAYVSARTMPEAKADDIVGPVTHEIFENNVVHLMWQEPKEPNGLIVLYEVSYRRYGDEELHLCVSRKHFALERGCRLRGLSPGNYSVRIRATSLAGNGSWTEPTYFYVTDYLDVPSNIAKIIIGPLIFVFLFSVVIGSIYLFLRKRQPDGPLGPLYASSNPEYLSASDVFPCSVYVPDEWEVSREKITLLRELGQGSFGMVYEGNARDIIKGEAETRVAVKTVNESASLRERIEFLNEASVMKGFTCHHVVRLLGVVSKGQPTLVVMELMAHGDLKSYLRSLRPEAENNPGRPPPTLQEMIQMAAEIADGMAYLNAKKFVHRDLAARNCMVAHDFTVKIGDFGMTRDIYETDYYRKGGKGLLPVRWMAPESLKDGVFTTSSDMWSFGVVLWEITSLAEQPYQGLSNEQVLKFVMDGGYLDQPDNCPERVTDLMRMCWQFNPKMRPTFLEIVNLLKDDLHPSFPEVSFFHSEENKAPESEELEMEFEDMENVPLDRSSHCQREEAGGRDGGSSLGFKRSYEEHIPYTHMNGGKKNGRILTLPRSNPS

With “(A14E, A21G, A22(GQAP)19, A98K^, A99P, B25H, B29R, desB30 human insulin)/(227A, 234A, 235K, 297E, 315Q, 384Q, des447 hIgG4-Fc(228-447))4-[bis[2-[(2-acetyl)amino]ethyl]amino]-4-oxo-butanoyl Conjugate [Example 5.15]” the “Insulin receptor affinity [IC50 relative to HI (%)] Mean Value” (insulin receptor A) was 3.68%, the “PK rat iv [T½ (h)] Mean Value” ([1]; intravenous) was 58.4 h and the “PK rat sc [T½ (h)] Mean Value” ([1]; subcutaneous) was 67.6 h. The Average blood glucose (Sprague-Dawley rats; time 0 days) was 6.748 mM, the Average blood glucose (Sprague-Dawley rats; time 0.041667 days) was 6.168 mM and the Average blood glucose (Sprague-Dawley rats; time 0.125 days) was 5.052 mM. The Average blood glucose (Sprague-Dawley rats; time 0.291667 days) was 3.292 mM, the Average blood glucose (Sprague-Dawley rats; time 1 day) was 2.524 mM and the Average blood glucose (Sprague-Dawley rats; time 2 days) was 2.752 mM. For the same substance, the Average blood glucose (Sprague-Dawley rats; time 3 days) was 4.116 mM, the Average blood glucose (Sprague-Dawley rats; time 4 days) was 5.744 mM and the Average blood glucose (Sprague-Dawley rats; time 6 days) was 6.32 mM. For the same substance, the Average blood glucose (Sprague-Dawley rats; time 7 days) was 6.516 mM, the Average blood glucose (Sprague-Dawley rats; time 8 days) was 5.904 mM and the “Lipogenesis in rat adipocytes [Potency (%)] Mean Value” (isolated rat adipocytes) was 3.68%.
